Where a SMILES comes first, the peptide text is derived from it. Bridges are numbered along the chain shown (N, C = ends).

The data set in a line: Determination of the protein binding (90% serum, 30 kDa filter, HPLC). It is filed as in vitro ADME. The conditions noted are these: serum. Here is the method:
Protein binding assays were performed as follows. The purified peptides were mixed with 90% serum and centrifuged through a 30 kDa filter. The ultra-filtrate and the non filtrated serum samples were quantified by HPLC measurements and the protein binding was subsequently calculated.
For the compound `CC(C)[C@@H]1NC(=O)CNC(=O)[C@H](CC(N)=O)NC(=O)[C@H](CCCNC(=N)N)NC(=O)[C@H](CCCCN)NC(=O)[C@H](C(C)C)NC(=O)[C@@H]2CSSC[C@H](NC(=O)[C@H](CCCCN)NC(=O)[C@H](CCCNC(=N)N)NC1=O)C(=O)N[C@@H](Cc1ccc(O)cc1)C(=O)N[C@@H](CCCNC(=N)N)C(=O)N[C@@H](CCCNC(=N)N)C(=O)N[C@H](C(=O)N[C@@H](CC(N)=O)C(=O)O)CSSC[C@H](NC(=O)[C@H](Cc1ccccc1)NC(=O)CN)C(=O)N[C@@H](Cc1ccccc1)C(=O)N[C@@H](CCCNC(=N)N)C(=O)N[C@@H](C(C)C)C(=O)N2` [compound 381] (H-GFCFRVCVKRNGVRKCYRRCN-OH; disulfide 3-20, 7-16 (inferred); N-terminus and C-terminus assumed), the fraction unbound is 0.02.
The same measure for `CC(C)[C@@H]1NC(=O)[C@H](CCCNC(=N)N)NC(=O)[C@H](CCCCN)NC(=O)CNC(=O)[C@H](CC(N)=O)NC(=O)[C@H](CCCNC(=N)N)NC(=O)[C@H](Cc2ccc(O)cc2)NC(=O)[C@H](C)NC(=O)[C@@H]2CSSC[C@H](NC1=O)C(=O)N[C@@H](Cc1ccc(O)cc1)C(=O)N[C@@H](CCCNC(=N)N)C(=O)N[C@@H](CCCNC(=N)N)C(=O)N[C@H](C(=O)N[C@@H](CC(N)=O)C(=O)O)CSSC[C@H](NC(=O)[C@H](Cc1ccccc1)NC(=O)CN)C(=O)N[C@@H](Cc1c[nH]c3ccccc13)C(=O)N[C@@H](CCCNC(=N)N)C(=O)N[C@@H](C)C(=O)N2` [compound 417] (H-GFCWRACAYRNGKRVCYRRCN-OH; disulfide 3-20, 7-16 (inferred); N-terminus and C-terminus assumed): 0.05; for `CC(C)[C@@H]1NC(=O)CNC(=O)[C@H](CC(N)=O)NC(=O)[C@H](CCCNC(=N)N)NC(=O)[C@H](Cc2ccc(O)cc2)NC(=O)[C@H](C(C)C)NC(=O)[C@@H]2CSSC[C@H](NC(=O)[C@H](C(C)C)NC(=O)[C@H](CCCNC(=N)N)NC1=O)C(=O)N[C@@H](Cc1ccc(O)cc1)C(=O)N[C@@H](CCCNC(=N)N)C(=O)N[C@@H](CCCNC(=N)N)C(=O)N[C@H](C(=O)N[C@@H](CC(N)=O)C(=O)O)CSSC[C@H](NC(=O)[C@H](Cc1ccccc1)NC(=O)CN)C(=O)N[C@@H](Cc1c[nH]c3ccccc13)C(=O)N[C@@H](CCCCN)C(=O)N[C@@H](C(C)C)C(=O)N2` [compound 10] (H-GFCWKVCVYRNGVRVCYRRCN-OH; disulfide 3-20, 7-16 (inferred); N-terminus and C-terminus assumed): 0.36.
The same measure for `CC(C)[C@@H]1NC(=O)CNC(=O)[C@H](CC(N)=O)NC(=O)[C@H](CCCNC(=N)N)NC(=O)[C@H](CCCCN)NC(=O)[C@H](C(C)C)NC(=O)[C@@H]2CSSC[C@H](NC(=O)[C@H](C(C)C)NC(=O)[C@H](CCCNC(=N)N)NC1=O)C(=O)N[C@@H](Cc1c[nH]cn1)C(=O)N[C@@H](CCCNC(=N)N)C(=O)N[C@@H](CCCNC(=N)N)C(=O)N[C@H](C(=O)N[C@@H](CC(N)=O)C(=O)O)CSSC[C@H](NC(=O)[C@H](Cc1ccccc1)NC(=O)CN)C(=O)N[C@@H](Cc1ccccc1)C(=O)N[C@@H](Cc1ccc(O)cc1)C(=O)N[C@@H](C(C)C)C(=O)N2` [compound 137] (H-GFCFYVCVKRNGVRVCHRRCN-OH; disulfide 3-20, 7-16 (inferred); N-terminus and C-terminus assumed): 0.14; for `CC(C)C[C@@H]1NC(=O)CNC(=O)[C@H](CC(N)=O)NC(=O)[C@H](CCCNC(=N)N)NC(=O)[C@H](CO)NC(=O)[C@H](C)NC(=O)[C@@H]2CSSC[C@H](NC(=O)[C@H](C(C)C)NC(=O)[C@H](CCCNC(=N)N)NC1=O)C(=O)N[C@@H](Cc1ccc(O)cc1)C(=O)N[C@@H](CCCNC(=N)N)C(=O)N[C@@H](CCCNC(=N)N)C(=O)N[C@H](C(=O)N[C@@H](CC(N)=O)C(=O)O)CSSC[C@H](NC(=O)[C@H](Cc1ccccc1)NC(=O)CN)C(=O)N[C@@H](Cc1c[nH]c3ccccc13)C(=O)N[C@@H](CCCNC(=N)N)C(=O)N[C@@H](C(C)C)C(=O)N2` [compound 435] (H-GFCWRVCASRNGLRVCYRRCN-OH; disulfide 3-20, 7-16 (inferred); N-terminus and C-terminus assumed): 0.15.
On to `CC(C)[C@@H]1NC(=O)CNC(=O)[C@H](CC(N)=O)NC(=O)[C@H](CCCNC(=N)N)NC(=O)[C@H](Cc2c[nH]cn2)NC(=O)[C@H](C(C)C)NC(=O)[C@@H]2CSSC[C@H](NC(=O)[C@H](C(C)C)NC(=O)[C@H](CCCNC(=N)N)NC1=O)C(=O)N[C@@H](Cc1c[nH]cn1)C(=O)N[C@@H](CCCNC(=N)N)C(=O)N[C@@H](CCCNC(=N)N)C(=O)N[C@H](C(=O)N[C@@H](CC(N)=O)C(=O)O)CSSC[C@H](NC(=O)[C@H](Cc1ccccc1)NC(=O)CN)C(=O)N[C@@H](Cc1c[nH]c3ccccc13)C(=O)N[C@@H](CC(N)=O)C(=O)N[C@@H](C(C)C)C(=O)N2` [compound 303] (H-GFCWNVCVHRNGVRVCHRRCN-OH; disulfide 3-20, 7-16 (inferred); N-terminus and C-terminus assumed), for which the fraction unbound was 0.57.
Next, `CC(C)[C@@H]1NC(=O)CNC(=O)[C@H](CC(N)=O)NC(=O)[C@H](CCCNC(=N)N)NC(=O)[C@H](Cc2ccc(O)cc2)NC(=O)[C@H](C(C)C)NC(=O)[C@@H]2CSSC[C@H](NC(=O)[C@H]([C@@H](C)O)NC(=O)[C@H](CCCNC(=N)N)NC1=O)C(=O)N[C@@H](Cc1ccc(O)cc1)C(=O)N[C@@H](CCCNC(=N)N)C(=O)N[C@@H](CCCNC(=N)N)C(=O)N[C@H](C(=O)N[C@@H](CC(N)=O)C(=O)O)CSSC[C@H](NC(=O)[C@H](Cc1ccccc1)NC(=O)CN)C(=O)N[C@@H](Cc1ccc(O)cc1)C(=O)N[C@@H](CCCNC(=N)N)C(=O)N[C@@H](C(C)C)C(=O)N2` [compound 209] (H-GFCYRVCVYRNGVRTCYRRCN-OH; disulfide 3-20, 7-16 (inferred); N-terminus and C-terminus assumed): 0.11.
The same measure for `CC(C)[C@@H]1NC(=O)CNC(=O)[C@H](CC(N)=O)NC(=O)[C@H](CCCNC(=N)N)NC(=O)[C@H](CCCCN)NC(=O)[C@H](C(C)C)NC(=O)[C@@H]2CSSC[C@H](NC(=O)[C@H](C(C)C)NC(=O)[C@H](CCCNC(=N)N)NC1=O)C(=O)N[C@@H](Cc1ccc(O)cc1)C(=O)N[C@@H](CCCNC(=N)N)C(=O)N[C@@H](CCCNC(=N)N)C(=O)N[C@H](C(=O)N[C@@H](CC(N)=O)C(=O)O)CSSC[C@H](NC(=O)[C@H](Cc1ccccc1)NC(=O)CN)C(=O)N[C@@H](C)C(=O)N[C@@H](CCCNC(=N)N)C(=O)N[C@@H](C(C)C)C(=O)N2` [compound 125] (H-GFCARVCVKRNGVRVCYRRCN-OH; disulfide 3-20, 7-16 (inferred); N-terminus and C-terminus assumed): 0.1.
`CC(C)[C@@H]1NC(=O)CNC(=O)[C@H](CC(N)=O)NC(=O)[C@H](CCCNC(=N)N)NC(=O)[C@H](CCCCN)NC(=O)[C@H](C(C)C)NC(=O)[C@@H]2CSSC[C@H](NC(=O)[C@H](C(C)C)NC(=O)[C@H](CCCNC(=N)N)NC1=O)C(=O)N[C@@H](Cc1ccc(O)cc1)C(=O)N[C@@H](CCCNC(=N)N)C(=O)N[C@@H](CCCNC(=N)N)C(=O)N[C@H](C(=O)N[C@@H](CC(N)=O)C(=O)O)CSSC[C@H](NC(=O)[C@H](Cc1ccccc1)NC(=O)CN)C(=O)N[C@@H](Cc1c[nH]c3ccccc13)C(=O)N[C@@H](CC(N)=O)C(=O)N[C@@H](C)C(=O)N2` [compound 258] (H-GFCWNACVKRNGVRVCYRRCN-OH; disulfide 3-20, 7-16 (inferred); N-terminus and C-terminus assumed): the fraction unbound is 0.11.
Compound `CC(C)[C@@H]1NC(=O)CNC(=O)[C@H](CC(N)=O)NC(=O)[C@H](CCCNC(=N)N)NC(=O)[C@H](Cc2ccc(O)cc2)NC(=O)[C@H](C(C)C)NC(=O)[C@@H]2CSSC[C@H](NC(=O)[C@H](C(C)C)NC(=O)[C@H](CCCNC(=N)N)NC1=O)C(=O)N[C@@H](Cc1c[nH]cn1)C(=O)N[C@@H](CCCNC(=N)N)C(=O)N[C@@H](CCCNC(=N)N)C(=O)N[C@H](C(=O)N[C@@H](CC(N)=O)C(=O)O)CSSC[C@H](NC(=O)[C@H](Cc1ccccc1)NC(=O)CN)C(=O)N[C@@H](Cc1c[nH]c3ccccc13)C(=O)N[C@@H](CC(N)=O)C(=O)N[C@@H](Cc1c[nH]c3ccccc13)C(=O)N2` [compound 267] (H-GFCWNWCVYRNGVRVCHRRCN-OH; disulfide 3-20, 7-16 (inferred); N-terminus and C-terminus assumed) showed a fraction unbound of 0.15.
For the compound `CC(C)[C@@H]1NC(=O)[C@@H]2CSSC[C@H](NC(=O)[C@H](CO)NC(=O)[C@H](CCCNC(=N)N)NC(=O)[C@H](CCCCN)NC(=O)CNC(=O)[C@H](CC(N)=O)NC(=O)[C@H](CCCCN)NC(=O)[C@H](Cc3ccc(O)cc3)NC1=O)C(=O)N[C@@H](Cc1ccc(O)cc1)C(=O)N[C@@H](CCCNC(=N)N)C(=O)N[C@@H](CCCNC(=N)N)C(=O)N[C@H](C(=O)N[C@@H](CC(N)=O)C(=O)O)CSSC[C@H](NC(=O)[C@H](Cc1ccccc1)NC(=O)CN)C(=O)N[C@@H](Cc1c[nH]c3ccccc13)C(=O)N[C@@H](Cc1c[nH]cn1)C(=O)N[C@@H](C(C)C)C(=O)N2` [compound 390] (H-GFCWHVCVYKNGKRSCYRRCN-OH; disulfide 3-20, 7-16 (inferred); N-terminus and C-terminus assumed), the fraction unbound is 0.13.
On to `CC(C)[C@@H]1NC(=O)[C@@H]2CSSC[C@H](NC(=O)[C@H](C)NC(=O)[C@H](CCCNC(=N)N)NC(=O)[C@H](CCCCN)NC(=O)CNC(=O)[C@H](CC(N)=O)NC(=O)[C@H](CCCCN)NC(=O)[C@H](Cc3ccc(O)cc3)NC1=O)C(=O)N[C@@H](Cc1ccc(O)cc1)C(=O)N[C@@H](CCCNC(=N)N)C(=O)N[C@@H](CCCNC(=N)N)C(=O)N[C@H](C(=O)N[C@@H](CC(N)=O)C(=O)O)CSSC[C@H](NC(=O)[C@H](Cc1ccccc1)NC(=O)CN)C(=O)NCC(=O)N[C@@H](CCCNC(=N)N)C(=O)N[C@@H](C(C)C)C(=O)N2` [compound 493] (H-GFCGRVCVYKNGKRACYRRCN-OH; disulfide 3-20, 7-16 (inferred); N-terminus and C-terminus assumed), for which the fraction unbound is 0.23.

(Values after patent US20160158317A1, “Antimicrobial Peptide Variants and Polynucleotides Encoding Same” (Adenium Biotech A/S, priority 2010, published 2016).)
